# According to PubChem BioAssay (NCI):
#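 48-hour exposure; five concentrations; linearly interpolated endpoints. Definition used: TGI = concentration required for complete inhibition of growth.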
# Columns and labels:
# Assay in all cases: inhibition of tumour cell growth, NCI panel, 48 h
# [1] = system: CAKI-1 renal
# [2] = system: A549 NSCLC
# [3] = system: RPMI-8226 leukemia
# [4] = system: COLO 205 colon
# [5] = system: SN12C renal
# [6] = system: UO-31 renal
# [7] = system: M14 melanoma
# [8] = system: HCT-15 colon
# [9] = system: NCI-H460 lung
# [10] = system: SW-620 colon
# [11] = system: NCI-H23 lung
# [12] = system: OVCAR-4 ovarian
# [13] = system: MDA-MB-435
# [14] = system: SF-539 CNS
# [15] = system: RXF 393 renal
# [16] = system: HL-60(TB) leukemia
# [17] = system: SK-OV-3 ovarian
# [18] = system: DU-145 prostate
# [19] = system: UACC-62 melanoma
# [20] = system: SK-MEL-5 melanoma
# [21] = system: SK-MEL-28 melanoma
# [22] = system: U251 CNS
# [23] = system: MDA-MB-231 breast
# [24] = system: OVCAR-8 ovarian
# [25] = system: LOX IMVI melanoma
# [26] = system: HOP-92 NSCLC
# [27] = system: 786-0 renal
# [28] = system: ACHN renal
# [29] = system: HS 578T breast
# [30] = system: NCI-H226 lung
# [31] = system: KM12 colon
# [32] = system: BT-549 breast
# [33] = system: EKVX NSCLC
# [34] = system: SR leukemia
# [35] = system: HCT-116 colon
# [36] = system: NCI-H522 lung
# [37] = system: SNB-19 CNS
# [38] = system: IGROV1 ovarian
# [39] = system: OVCAR-3 ovarian
# [40] = system: MDA-N
# [41] = system: NCI/ADR-RES ovarian
# [42] = system: SNB-75 CNS
# [43] = system: TK-10 renal
# [44] = system: HOP-62 NSCLC
# [45] = system: OVCAR-5 ovarian
# [46] = system: MOLT-4 leukemia
# [47] = system: K-562 leukemia
# [48] = system: HT29 colon
# [49] = system: SF-268 CNS
# [50] = system: A498 renal
# [51] = system: MCF7 breast
# [52] = system: T-47D breast
# [53] = system: SF-295 CNS
# [54] = system: MALME-3M melanoma
# [55] = system: PC-3 prostate
# [56] = system: DMS 273 small cell lung
# [57] = system: M19-MEL melanoma
# [58] = system: SNB-78 CNS
# [59] = system: HCC-2998 colon
# [60] = system: HOP-18 NSCLC
# [61] = system: UACC-257 melanoma
# [62] = system: LXFL 529 NSCLC
# [63] = system: KM20L2 colon
# [64] = system: CCRF-CEM leukemia
# [65] = system: SK-MEL-2 melanoma
smiles,measurement,setting,value
CC(C)CC(NC=O)C(=O)NC(Cc1ccccc1)NC(=O)CNC(=O)C(C)NC(=O)OC(C)(C)C (centres undefined),TGI,[1],> 100 µM
same,TGI,[2],> 100 µM
same,TGI,[3],> 100 µM
same,TGI,[4],> 100 µM
same,TGI,[5],> 100 µM
same,TGI,[6],> 100 µM
same,TGI,[7],> 100 µM
same,TGI,[8],> 100 µM
same,TGI,[9],> 100 µM
same,TGI,[10],> 100 µM
same,TGI,[11],> 100 µM
same,TGI,[12],> 100 µM
same,TGI,[13],> 100 µM
same,TGI,[14],> 100 µM
same,TGI,[15],> 100 µM
same,TGI,[16],> 100 µM
same,TGI,[17],> 100 µM
same,TGI,[18],> 100 µM
same,TGI,[19],> 100 µM
same,TGI,[20],> 100 µM
same,TGI,[21],> 100 µM
same,TGI,[22],> 100 µM
same,TGI,[23],> 100 µM
same,TGI,[24],> 100 µM
same,TGI,[25],> 100 µM
same,TGI,[26],> 100 µM
same,TGI,[27],> 100 µM
same,TGI,[28],> 100 µM
same,TGI,[29],> 100 µM
same,TGI,[30],> 100 µM
same,TGI,[31],> 100 µM
same,TGI,[32],> 100 µM
same,TGI,[33],> 100 µM
same,TGI,[34],> 100 µM
same,TGI,[35],> 100 µM
same,TGI,[36],> 100 µM
same,TGI,[37],> 100 µM
same,TGI,[38],> 100 µM
same,TGI,[39],> 100 µM
same,TGI,[40],> 100 µM
same,TGI,[41],> 100 µM
same,TGI,[42],> 100 µM
same,TGI,[43],> 100 µM
same,TGI,[44],> 100 µM
same,TGI,[45],> 100 µM
same,TGI,[46],> 100 µM
same,TGI,[47],> 100 µM
same,TGI,[48],> 100 µM
same,TGI,[49],> 100 µM
same,TGI,[50],> 100 µM
same,TGI,[51],> 100 µM
same,TGI,[52],> 100 µM
same,TGI,[53],> 100 µM
same,TGI,[54],> 100 µM
same,TGI,[55],> 100 µM
Cc1ccc(SC2C(C)(C)N(C(C)C)P2(=O)N(C(C)C)C(C)C)cc1 (centres undefined),TGI,[1],> 100 µM
same,TGI,[2],> 70.8 µM
same,TGI,[3],36.8 µM
same,TGI,[56],27.7 µM
same,TGI,[4],> 64.1 µM
same,TGI,[5],> 100 µM
same,TGI,[57],> 86.6 µM
same,TGI,[6],> 100 µM
same,TGI,[7],> 100 µM
same,TGI,[8],> 100 µM
same,TGI,[9],> 67.6 µM
same,TGI,[58],> 100 µM
same,TGI,[59],> 100 µM
same,TGI,[10],> 50 µM
same,TGI,[11],> 100 µM
same,TGI,[12],> 100 µM
same,TGI,[60],> 100 µM
same,TGI,[14],> 100 µM
same,TGI,[16],41.9 µM
same,TGI,[61],67.5 µM
same,TGI,[17],> 100 µM
same,TGI,[62],> 100 µM
same,TGI,[63],> 100 µM
same,TGI,[19],> 100 µM
same,TGI,[20],> 100 µM
same,TGI,[21],> 100 µM
same,TGI,[22],> 100 µM
same,TGI,[24],> 100 µM
same,TGI,[64],> 55.7 µM
same,TGI,[25],> 59.9 µM
same,TGI,[26],58.3 µM
same,TGI,[27],> 100 µM
same,TGI,[28],> 100 µM
same,TGI,[30],> 100 µM
same,TGI,[31],> 100 µM
same,TGI,[33],97.3 µM
same,TGI,[34],31.4 µM
same,TGI,[35],> 63.4 µM
same,TGI,[65],> 100 µM
same,TGI,[36],> 74.2 µM
same,TGI,[37],> 100 µM
same,TGI,[38],> 100 µM
same,TGI,[39],> 100 µM
same,TGI,[42],> 100 µM
same,TGI,[43],> 100 µM
same,TGI,[44],> 100 µM
same,TGI,[45],> 100 µM
same,TGI,[46],> 59.3 µM
same,TGI,[47],> 52.4 µM
same,TGI,[48],> 100 µM
same,TGI,[49],> 100 µM
same,TGI,[50],> 100 µM
same,TGI,[53],> 100 µM
same,TGI,[54],> 100 µM
